Columns and labels:
[1] = test system: MDA-MB-231 cells; experiment: Invasion assay; format: cell-based, human; details: 48 h
Method: Invasion Assay. MDA-MB-231 cells were seeded in […] and treated with compound or transfected by ASO for 48 h as described in Cell Culture. After treatment for 48 h, the medium was replaced with fresh medium that contains same concentration of compound but lacking FBS for 8 h (serum starvation). ThinCert (GBO) 24-well inserts with 8 μm pores were coated with 100 μL of 0.5 mg/mL Matrigel (Fisher Scientific: CB40234) per well, and then cells were added into the insert (50,000 cells per well). Fresh growth medium with FBS was added to a 24-well plate (600 μL each well), and the inserts containing cells were placed on the top, allowing medium to cover the bottom of the insert. After 16 h, all medium was removed, and cells were washed by 1×DPBS twice. Cells were then fixed with 3% (w/v) paraformaldehyde (PFA) in 1×DPBS at room temperature for 30 min, followed by staining with Crystal Violet (10 mg/mL; 4:1H2O:MeOH) at room temperature for 20 min. A cotton swab was used to gently remove non-invasive cells on sitting on top of the Matrigel. The inserts were then imaged under a regular optical microscope (3 views per well), and the number of invasive cells were counted manually.

[2] = test system: QSOX1-a protein; experiment: QSOX1-a protein abundance by Western blotting in MDA-MB-231 cells; format: cell-based, human; details: 20 μM
Method: Measuring Protein Abundance by Western Blotting. MDA-MB-231 cells were seeded in 6-well plates at ˜50% confluency and treated with vehicle (DMSO) or compound as described above but without EU treatment. After 16 h, the compound-containing growth medium was removed and replaced with fresh medium containing compound (re-dosing). After an additional 32 h incubation, total protein was harvested (48 h total treatment time). The cells were then washed twice with cold 1×DPBS, and total protein was harvested by using Mammalian Protein Extraction Reagent (M-PER, Thermo Scientific) per the manufacturer's protocol. Protein concentration was quantified by using BCA Protein Assay Kit (Pierce), and the proteins were separated by using 10% SDS-polyacrylamide gel (20 μg protein per lane). After gel electrophoresis in 1× Running Buffer (50 mM MOPS, 50 mM Tris-base, pH 7.5, 1 mM EDTA, and 0.1% (w/v) SDS) at 120 V for 1 h, the proteins were transferred to a PVDF membrane (0.45 μm, Cytiva) at 300 mA for 1 h in 1× Transfer Buffer (25 mM Bicine, 25 mM Tris-base, pH 7.5, 1:4 MeOH:H2O). The membrane was blocked with 5% (w/v) non-fat dry milk in TBST (1×TBS containing 0.1% (v/v) Tween-20) for 1 h at room temperature. The primary antibody for QSOX1 protein (Cat #10092-932, Proteintech) or SQSTM1 protein (Cat #ab 109012, Abcam) was incubated with 1:1000 dilutions at 4° C. for 16 h. The membrane was then washed by TBST four times (5 min each) and then incubated with the secondary antibody (Cat #7074S, Cell Signaling) with 1:5000 dilution at room temperature for 2 h. The membrane was washed with TBST four times (5 min each) and imaged by using a SuperSignal West Pico Chemiluminescent Substrate (Pierce) per manufacturer's protocol. The blot was stripped by washing the membrane in 1× Stripping Buffer (200 mM glycine, pH 2.2, 4 mM SDS, 1% (v/v) Tween 20) at room temperature for 30 min, followed by blocking again as described above. […] Expression levels of proteins were quantified based on band intensity by using ImageJ. […]

[3] = target: T1, RNase L (Homo sapiens, UniProt Q05823); details: versus the RNase L recruiting module of F1-RIBOTAC; cited from earlier work
T1 sequence (Q05823 1-741): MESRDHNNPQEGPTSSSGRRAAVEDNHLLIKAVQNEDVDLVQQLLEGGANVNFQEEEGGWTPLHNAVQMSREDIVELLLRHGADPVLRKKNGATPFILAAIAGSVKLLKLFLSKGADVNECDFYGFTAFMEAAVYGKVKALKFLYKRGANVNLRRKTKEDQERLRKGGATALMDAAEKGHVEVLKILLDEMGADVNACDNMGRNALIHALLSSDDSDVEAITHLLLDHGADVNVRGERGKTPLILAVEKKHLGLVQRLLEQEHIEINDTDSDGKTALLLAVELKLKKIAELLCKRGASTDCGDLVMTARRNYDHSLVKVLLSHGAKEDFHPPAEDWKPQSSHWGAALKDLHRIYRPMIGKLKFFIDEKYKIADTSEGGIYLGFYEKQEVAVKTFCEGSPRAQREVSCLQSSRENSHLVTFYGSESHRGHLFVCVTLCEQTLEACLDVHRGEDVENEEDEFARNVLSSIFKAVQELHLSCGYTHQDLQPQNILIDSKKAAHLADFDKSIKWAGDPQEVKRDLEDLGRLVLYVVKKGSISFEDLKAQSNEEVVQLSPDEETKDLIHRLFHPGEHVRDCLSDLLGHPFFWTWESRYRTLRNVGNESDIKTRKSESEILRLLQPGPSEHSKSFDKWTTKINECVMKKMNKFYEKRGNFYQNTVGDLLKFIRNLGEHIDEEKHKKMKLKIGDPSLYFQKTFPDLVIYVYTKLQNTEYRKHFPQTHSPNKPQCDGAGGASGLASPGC

[4] = target: QSOX1 5′UTR hairpin (model of the QSOX1-a binding site); experiment: In vitro binding by fluorescence polarization, Cy5-labeled WT RNA; design: species or system human
Method: In Vitro Binding by Measuring Changes in Fluorescence Polarization. Cy5-labeled RNA was folded by heating at 95° C. for 2 min in 1× Folding Buffer and cooled on ice. Serial dilutions of F1 (200 to 0.4 μM, 1:1 dilutions) were prepared in 1× Folding Buffer with 4% (w/v) bovine serum albumin (BSA) with constant DMSO concentration (2% v/v). The compound solutions (10 μL) were added to a well of non-binding 384-well plate (Corning). An equal volume of folded RNA was adding to each well with a final concentration of 50 nM. The samples were incubated at room temperature for 30 min, and then fluorescence polarization was measured with a Molecular Devices SpectraMax M5 plate reader with an excitation wavelength of 640 nm and an emission wavelength of 680 nm.

Kd [4]: 10 ± 3 µM
SMILES: CCOC(=O)C1=C(Nc2ccccc2)S/C(=C\c2ccc(O)c(OCCOCCOCCOCCNC(=O)CCC(=O)N(C)[C@H]3CC[C@@H](c4ccc(Cl)c(Cl)c4)c4ccccc43)c2)C1=O [Compound F1-CTRL]
effect on invasion [1]: no significant effect | reduction of QSOX1-a protein [2]: ~15% | reduction of RNase L recruiting activity [3]: > 20 fold
